From patent US7045529B2, “Imidazopyrimidinyl and imidazopyri dinyl derivatives” (Bristol-Myers Squibb Company, priority 1999, dated 2006)

Assays:
[1] = system: “anxiogenic” effects of CRF; conditions: cited from earlier work; for effect on the “anxiogenic” effects / actions of CRF in the conflict test: rats, literature (Britton et al.)

SMILES	melting point [°C]	effect on the “anxiogenic” effects / actions of CRF in the conflict test [1]	behavioral activity alone in the operant conflict test ([1]; compound alone, without CRF, literature (Britton et al. 1988))
CCc1nc2c(-c3ccc(OC(F)(F)F)cc3Cl)ncnc2n1C(C1CC1)C1CC1 [Example 8, 6-(2-Chloro-4-trifluoromethoxyphenyl)-9-dicyclopropylmethyl-8-ethylpurine]	119 to 120		
CCCC(C)n1c(CC)nc2c(-c3ccc(OC(F)F)cc3Cl)ncnc21 (centres unmarked) [Example 10, 6-(2-Chloro-4-difluoromethoxyphenyl)-8-ethyl-9-(2-pentyl)purine]	99 to 100		
CNC(=O)c1cc2c(cn1)[nH]c1ccccc12 [FG7142]		enhanced the actions of CRF	
CCOC(=O)c1ncn2c1CN(C)C(=O)c1cc(F)ccc1-2 [Ro15-1788]		reversed the effects of CRF in a dose-dependent manner	without behavioral activity alone
